Measured values: PubChem BioAssay (NCI)
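Test compounds were applied to cells in 96-well plates for 48 hours at 5 doses. GI50 is the concentration that inhibits growth by half. TGI marks complete inhibition of growth.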

How the values were obtained:
Experiment in all cases: DTP human tumour cell line panel, 48 h
[1] = test system: NCI-H460 lung
[2] = test system: NCI-H522 lung
[3] = test system: NCI/ADR-RES ovarian
[4] = test system: OVCAR-3 ovarian
[5] = test system: OVCAR-4 ovarian
[6] = test system: OVCAR-5 ovarian
[7] = test system: OVCAR-8 ovarian
[8] = test system: PC-3 prostate
[9] = test system: RPMI-8226 leukemia
[10] = test system: RXF 393 renal
[11] = test system: SF-268 CNS
[12] = test system: SF-295 CNS
[13] = test system: SF-539 CNS
[14] = test system: SK-MEL-2 melanoma
[15] = test system: SK-MEL-28 melanoma
[16] = test system: SK-MEL-5 melanoma
[17] = test system: SK-OV-3 ovarian
[18] = test system: SN12C renal
[19] = test system: SNB-19 CNS
[20] = test system: SNB-75 CNS
[21] = test system: SR leukemia
[22] = test system: SW-620 colon
[23] = test system: T-47D breast
[24] = test system: TK-10 renal
[25] = test system: U251 CNS
[26] = test system: UACC-257 melanoma
[27] = test system: UACC-62 melanoma
[28] = test system: UO-31 renal

## Cc1ccc2c(n1)C(=O)C(Cl)=C(Nc1ccc(C)c(C)c1)C2=O
[1]
  GI50: 2070 nM
  TGI: 12000 nM
[2]
  GI50: 2000 nM
  TGI: 4900 nM
[3]
  GI50: 2210 nM
  TGI: 8260 nM
[4]
  GI50: 590 nM
  TGI: 1890 nM
[5]
  GI50: 1360 nM
  TGI: 2810 nM
[6]
  GI50: 2230 nM
  TGI: 4370 nM
[7]
  GI50: 2270 nM
  TGI: 6320 nM
[8]
  GI50: 1690 nM
  TGI: 12700 nM
[9]
  GI50: 1540 nM
  TGI: 4700 nM
[10]
  GI50: 1500 nM
  TGI: 2850 nM
[11]
  GI50: 2200 nM
  TGI: 6510 nM
[12]
  GI50: 1740 nM
  TGI: 3510 nM
[13]
  GI50: 1770 nM
  TGI: 3230 nM
[14]
  GI50: 2540 nM
  TGI: 6570 nM
[15]
  GI50: 2070 nM
  TGI: 4280 nM
[16]
  GI50: 1380 nM
  TGI: 2740 nM
[17]
  GI50: 22000 nM
  TGI: > 100000 nM
[18]
  GI50: 2020 nM
  TGI: 5270 nM
[19]
  GI50: 1590 nM
  TGI: 4070 nM
[20]
  GI50: 1730 nM
  TGI: 3870 nM
[21]
  GI50: 1530 nM
  TGI: 5750 nM
[22]
  GI50: 2070 nM
  TGI: 4510 nM
[23]
  GI50: 975 nM
  TGI: 3220 nM
[24]
  GI50: 7480 nM
  TGI: 19700 nM
[25]
  GI50: 1480 nM
  TGI: 2960 nM
[26]
  GI50: 1560 nM
  TGI: 2980 nM
[27]
  GI50: 1780 nM
  TGI: 4360 nM
[28]
  GI50: 1310 nM
  TGI: 2710 nM
